Values quoted from earlier work in patent US8329872B2, “Drug monitoring assay” (Novartis AG, priority 2007, dated 2012).

Target: classical and novel protein kinase C (PKC) isoforms

ki values: in the nM range
SMILES: CN1CCN(c2nc(C3=C(c4c[nH]c5ccccc45)C(=O)NC3=O)c3ccccc3n2)CC1 [AEB071]
